Values after ≈ are worked out from the molar mass of the structure shown.
Legend:
Format in all cases: functional
Staphylococcus aureus = experiment: Antibacterial activity against Staphylococcus aureus ATCC 6538
Bacillus subtilis = experiment: Antibacterial activity against Bacillus subtilis ATCC 6633
Candida albicans = experiment: Antifungal activity against Candida albicans ATCC 10231
Aspergillus niger = experiment: Antifungal activity against Aspergillus niger NRRL 530
Klebsiella pneumoniae = experiment: Antibacterial activity against Klebsiella pneumoniae ATCC 13883
Escherichia coli = experiment: Antibacterial activity against Escherichia coli ATCC 10536

| MIC (Staphylococcus aureus) [mg/L] | MIC (Bacillus subtilis) [mg/L] | MIC (Candida albicans) [mg/L] | MIC (Aspergillus niger) [mg/L] | MIC (Klebsiella pneumoniae) [mg/L] | MIC (Escherichia coli) [mg/L] | Structure (SMILES) |
| --- | --- | --- | --- | --- | --- | --- |
| 275 (≈ 960 µM) | 250 (≈ 873 µM) | 175 (≈ 611 µM) | 200 (≈ 699 µM) | > 1000 | > 1000 | COc1cc(C(C)C)c2cc(C)c(OC)c3c2c1C(=O)O3 |
| 300 (≈ 1100 µM) | 350 (≈ 1290 µM) | 225 (≈ 826 µM) | 250 (≈ 918 µM) | > 1000 | > 1000 | COc1cc(C(C)C)c2cc(C)c(O)c3c2c1C(=O)O3 |

Source: ChEMBL document CHEMBL1147399, “Two new sesquiterpene lactones from Ceiba pentandra” (1993)
